Experimental data as given in the METLIN SMRT retention time set (Domingo-Almenara et al. 2019).

Test: gradient 5% acetonitrile 3 min, to 50% in 2 min, to 85% in 15 min, held 3 min, 100 µL/min
Details: column: Zorbax Extend-C18 2.1 x 50 mm; eluents: water / acetonitrile, 0.1% formic acid
Method in brief: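 A Zorbax Extend-C18 column (2.1 × 50 mm, 1.8 μm) run at 100 μL/min with water and acetonitrile, both containing 0.1% formic acid, separated mixtures of ~100 pure standards. The HPLC was coupled to a quadrupole time-of-flight mass spectrometer operated in positive and negative ionization mode, with dead and dwell volumes of 40 μL and 900 μL. Each retention time was taken from a computationally picked adduct peak that was then manually inspected.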

| RP-LC retention time [s] | SMILES |
| --- | --- |
| 550 | CC(C)NC(=O)N(C)Cc1nc2cc(C(=O)N3CCCC3)ccc2n1C |
| 1200 | Cc1ccc(-c2noc(-c3cccc(S(=O)(=O)Nc4ccccc4)c3)n2)cc1 |
| 930 | CCn1c(C)c(-c2nc(C3CC3)no2)c(S(=O)(=O)NCC(C)C)c1C |
| 959 | O=C(NCCc1c[nH]c2ccc(Cl)cc12)c1cc(-c2ccccn2)nc2ccccc12 |
| 690 | COc1ccc(-c2noc(N3CCC(C(=O)NC4CC4)CC3)n2)cc1OC |
| 802 | CCC(C(=O)NC1CC1)n1nc(C)c2c(C)n(-c3ccc(C)cc3)nc2c1=O (centres undefined) |
| 662 | NC(=O)C1CCN(C2CC(=O)N(c3ccc(Oc4ccccc4)cc3)C2=O)CC1 (centres undefined) |
| 680 | O=C1NCCCn2cc(S(=O)(=O)Nc3cccc(Cl)c3)cc21 |
| 830 | CCc1ccc(NC(=O)c2c(C)oc3nc(C)nc(N4CCCC4)c23)cc1 |
| 672 | COc1ccc(NS(=O)(=O)c2cc(-c3[nH]ncc3C(=O)N(C)C)oc2C)cc1F |
| 1090 | Cc1ccccc1CN1C(=O)N(c2cccc(F)c2)c2ncccc2S1(=O)=O |
| 626 | COc1ccc2nc(SCC(=O)N3CCC(C(N)=O)CC3)nc(C)c2c1 |
| 1130 | O=C(Cc1csc(-c2ccccc2)n1)Nc1nc(-c2ccccc2)cs1 |
| 663 | CC(C)c1ncc(CO)n1Cc1c(Cl)cccc1Cl |
| 895 | COc1ccc(Cl)cc1NC(=O)N1CCC2(CC1)NC(=O)c1cc(C)ccc1N2C |
| 717 | Cc1ccn2c(Nc3ccc4c(c3)OCCO4)c(-c3ccc(Cl)cc3)nc2c1 |
| 807 | CC1CCN(c2ncc3c(n2)CCN(Cc2ccc(OC(C)C)cc2)C3)CC1 |
| 1030 | COc1ccc(-c2cn3c(CC(=O)N4CCN(c5ccccn5)CC4)csc3n2)cc1OC |
| 624 | COCCNC(=O)CSc1nc(-c2ccc(F)cc2)[nH]c1-c1ccccc1 |
| 844 | CCc1onc(C)c1C1CCCN1C(=O)Nc1ccc(C)cc1 (centres undefined) |
| 961 | COc1ccc(C2C(=O)N(C3CCC(C)CC3)CC(=O)N2Cc2cccs2)cc1OC (centres undefined) |
| 854 | Cn1cc(C(=O)NCc2ccc3c(c2)OCO3)c(S(=O)(=O)N2CCCCC2)n1 |

| RP-LC retention time [s] | SMILES |
| --- | --- |
| 674 | [O-][n+]1ccc(CC(O)(C(F)(F)F)C(F)(F)F)cc1 |
| 668 | CCN1CCC2(CC1)N=C(c1ccc(C)cc1C)CC(c1cc(Cl)ccc1O)N2 (centres undefined) |
| 904 | CCN1C(=O)CCc2cc(NS(=O)(=O)c3ccc(Cl)c(Cl)c3)ccc21 |
| 616 | O=C(O)CCC(=O)Nc1ccccc1Cl |
| 1070 | CCc1noc(CC2CCOC3(CCN(S(=O)(=O)c4ccc(Cl)cc4)CC3)C2)n1 (centres undefined) |
| 553 | CCN1CCN(CCCNC(=O)C(C)n2c3ccccc3c3cnn(C)c(=O)c32)CC1 (centres undefined) |
| 951 | CCS(=O)(=O)N1CC(=O)N(c2ccccc2C)C(C)(C(=O)NC2CCCCCCC2)C1 (centres undefined) |
| 892 | Cc1ccc(-n2c(=O)n(C)c(=O)c3cc(C(=O)Nc4ccc5c(c4)OCCO5)cnc32)cc1 |
| 1010 | O=C(Nc1nnc(-c2cc(Cl)sc2Cl)o1)c1cccc(C(F)(F)F)c1 |
| 592 | CC(C)c1noc(COC2CCN(C(=O)Cn3ccnc3)CC2)n1 |
| 665 | CC(C)CN1CCN(Cc2nc(Cn3ccn4nc(-c5ccccc5)cc4c3=O)no2)CC1 |
| 754 | O=C(NCc1ccccc1)C1CCCN(c2ncnc3c2oc2ccccc23)C1 (centres undefined) |
| 1030 | COc1ccc(N2CCN(c3cc(SCC(=O)Nc4cc(OC)ccc4OC)ncn3)CC2)cc1 |
| 664 | COc1ccc(-c2cc3c(=O)n(Cc4noc(CN5CCC(C)CC5)n4)ccn3n2)cc1 |
| 537 | O=C(Cn1cccn1)Nc1nc(-c2cccnc2)cs1 |
| 1100 | Cc1cc(C)cc(NC(=O)Cn2nc(N3CCC(C)CC3)c3ccccc3c2=O)c1 |
| 1340 | CCOc1ccc(C2Cn3nnc(-c4nc(-c5ccc(C(F)(F)F)cc5)no4)c3CO2)cc1 (centres undefined) |
| 1240 | O=C(NCc1ccccc1Cl)c1c(O)c2cccnc2n(-c2ccc(F)cc2)c1=O |
| 700 | O=C(c1cccs1)N1CCCN(c2ccc(=O)n(-c3ccccc3)n2)CC1 |
| 1090 | N#CC1C=Cc2c(ccc3ccccc23)N1C(=O)c1ccccc1 (centres undefined) |
| 870 | CC(C)Oc1ccc(-c2nc3ncccn3c2NC2CCCCC2)cc1 |
| 876 | COC(=O)c1c(NC2CCCCC2)c2cccc(Cl)c2[nH]c1=O |

| RP-LC retention time [s] | SMILES |
| --- | --- |
| 670 | COc1ccc(NC(=O)N(C)CC2CCOCC2)c(C)c1 |
| 764 | COc1cc(NC(=O)COc2cc(C)nc(N3CCN(c4ccccc4)CC3)n2)cc(OC)c1OC |
| 580 | CC(Sc1nnnn1-c1ccccc1)C(=O)Nc1ccc(N2CCN(C)CC2)cc1 (centres undefined) |
| 660 | COc1ccc(-c2cn3c(CC(=O)NC4CCCC4)csc3n2)cc1OC |
| 647 | COc1ccc(S(=O)(=O)N2CCCCC2CC(=O)Nc2ncccn2)cc1 (centres undefined) |
| 688 | CCCC(NC(=O)c1cc(OC)c(OC)c(OC)c1)C(=O)Nc1nc2ccccc2[nH]1 (centres undefined) |
| 1080 | CC(C)c1ccc(S(=O)(=O)N2CCC(C(=O)NCCc3csc(-c4ccccc4)n3)CC2)cc1 |
| 800 | O=C(Cc1nc(-c2ccccc2)n[nH]1)Nc1cccc(Cl)c1 |
| 718 | COC(=O)Cn1c(C2CC(=O)N(c3cccc(OC)c3)C2)nc2ccccc21 (centres undefined) |
| 671 | Cc1cc(NS(=O)(=O)c2cc3n(c2)CCCNC3=O)ccc1F |
| 727 | O=C(NC1CCCCC1)N1CCC(c2noc(-c3ccncc3)n2)C1 (centres undefined) |
| 601 | O=C(CSc1nnc(CCc2nc3ccccc3[nH]2)o1)NCCc1ccc(Cl)cc1 |
| 814 | Cc1ccc(NC(=O)C2CCN(S(=O)(=O)c3ccc4c(c3)CCCC(=O)N4)CC2)cc1C |
| 803 | COc1ccc(-c2c(C)noc2NC(C)=O)cc1S(=O)(=O)Nc1ccc(F)c(Cl)c1 |
| 617 | O=C(CCc1nnn2c1CN(C(=O)c1ccc(F)cc1)CC2)NC1CC1 |
| 1020 | CCOC(=O)Cc1ccc(NC(=O)N2CCc3cn(CC)c4cccc(c34)C2)cc1 |
| 676 | O=C(c1ccccc1)N1CCC(Oc2cc(N3CCOCC3)ncn2)C1 (centres undefined) |
| 614 | CC(C)N1CCN(Cc2nc(-c3ccc(N4CCSCC4)nc3)no2)CC1 |
| 569 | O=C(Cc1csc(NC(=O)C2CCCC2)n1)NC1CCN(Cc2ccccc2)CC1 |
| 917 | O=C(C1CCN(c2nc3ccsc3c(=O)n2-c2ccccc2)CC1)N1CCN(c2ccccc2)CC1 |
| 1020 | Cc1ccc(-c2noc(C3CCCN3C(=O)NC3CCCCC3)n2)cc1 (centres undefined) |
| 573 | CS(=O)(=O)N1CC(n2cc(C(=O)N3CCOCC3)nn2)C1 |

| RP-LC retention time [s] | SMILES |
| --- | --- |
| 815 | Cc1ccc(CCNC(=O)C2CCCN(c3nnc(C)c4c(C)n(-c5ccc(C)cc5)nc34)C2)cc1 (centres undefined) |
| 787 | O=C(Nc1ccc(Cl)cc1)C1CC(=O)N(c2n[nH]c3cccc(F)c23)C1 (centres undefined) |
| 895 | CCc1ccc(-c2cn3ccn(-c4cccc(F)c4)c(=O)c3n2)cc1 |
| 1030 | Cc1ccc(C)c(NC(=O)Cn2cccc(-c3nc(-c4ccc(Br)cc4)no3)c2=O)c1 |
| 927 | O=C(Nc1ccccc1C(=O)N1CCN(c2ccccc2F)CC1)C1=CSCCO1 |
| 1090 | Cc1cc2nc(C(=O)Nc3ccc(C)c(C)c3)cc(C)n2n1 |
| 880 | CCCCNc1nc(NCC)nc(-n2cnc(SC)n2)n1 |
| 680 | Cc1nn(C(C)C(=O)NCCCN2CCCCC2)c(=O)c2c1sc1ccccc12 (centres undefined) |
| 831 | Cn1c(N2CCCC(C(=O)N3CCN(c4cccc(C(F)(F)F)c4)CC3)C2)cc(=O)n(C)c1=O (centres undefined) |
| 843 | COc1cc(OC)cc(-c2nc(-c3ccc4ncn(C(C)C)c4c3)no2)c1 |
| 812 | CCCC(=O)Nc1nc(-c2ccc3c(c2)NC(=O)C(C)O3)c(C)s1 (centres undefined) |
| 1060 | COC(=O)c1c(-c2cccc(Cl)c2)noc1NCc1ccco1 |
| 801 | CC(C)CCn1nc2ccc(S(=O)(=O)N3CCOCC3)cn2c1=O |
| 906 | Cc1nn2c(CNS(=O)(=O)c3ccc(F)c(F)c3)c(-c3ccccc3)nc2s1 |
| 705 | Cn1c(CCNC(=O)c2ccc(C(C)(C)C)cc2)nc2cccnc21 |
| 577 | Cc1cnn(CC(=O)N2CCc3nn(C)c(=O)n3CC2)c1 |
| 1230 | Cc1c(C(=O)N2CCCC(C)C2)cnn1-c1ccc(-c2nc(C(C)(C)C)no2)cn1 (centres undefined) |
| 865 | CCC(C)Nc1nc2c(c(=O)n(C)c(=O)n2C)n1CC(O)COc1ccccc1 (centres undefined) |
| 723 | Cc1ccc(C)c(CS(=O)(=O)N2CCC(CN3CCCC(C)C3)CC2)c1 (centres undefined) |
| 870 | CC(C)(C)c1ccc(OCC(=O)Nc2ccc(CC(=O)N3CCOCC3)cc2)cc1 |
| 660 | Cc1ccc2c(C(=O)NCCc3cccs3)cc(NC(=O)C3CCC3)cc2n1 |
| 556 | COc1ccc2nc(CN3CCN(S(=O)(=O)N(C)C)CC3)[nH]c2c1 |

| SMILES | RP-LC retention time [s] |
| --- | --- |
| CSc1nc(C)c(Br)c(N2CC2)n1 | 596 |
